Assays:
[1] = test system: rheumatoid arthritis model, DBA-1J Mice [류마티스 관절염 모델]; assay: Histopathological examination in rheumatoid arthritis animal model, dose regimen study, Experiment 6; assay type: in vivo, mouse; settings: Day 14
TNF-α = TNF-α expression inhibition in Raw264.7, comparison with hydroxychloroquine and proguanil, Experiment 2-3; assay type: cell-based
[2] = test system: rheumatoid arthritis model, DBA-1J Mice [류마티스 관절염 모델]; assay: Arthritis score in rheumatoid arthritis animal model, Experiment 5; assay type: in vivo, mouse
[3] = test system: rheumatoid arthritis model, DBA-1J Mice [류마티스 관절염 모델]; assay: Arthritis score in rheumatoid arthritis animal model, dose regimen study, Experiment 6; assay type: in vivo, mouse

Question: `CCc1nc(N)nc(N)c1-c1ccc(Cl)cc1` [피리메타민, Pyrimethamine] was tested. Which “Efficacy by histopathology compared with hydroxychloroquine and tofacitinib (in words)” value [1] did it give?
Answer: 히드록시클로로퀸과 토파시티닙에 비해 보다 우수한 효과

Question: And the “Efficacy by histopathology compared with methotrexate (in words)” value [1]?
Answer: 메토트렉세이트와 유사한 수준의 관절염 치료 효능

Question: What about the “Therapeutic efficacy by histopathology (in words)” value [1] of the same compound?
Answer: 농도 의존적으로 치료 효능을 보였다

Question: And the Bone destruction ([1]; G7: Py 1 mg/kg/day QD IP)?
Answer: 2.5±0.5

Question: And the Cartilage damage ([1]; G7: Py 1 mg/kg/day QD IP)?
Answer: 2.2±1.0

Question: And the “Histopathological examination, total” value ([1]; G7: Py 1 mg/kg/day QD IP)?
Answer: 7.7±1.5

Question: And the Synovium proliferation ([1]; G7: Py 1 mg/kg/day QD IP)?
Answer: 3.0±0.0

Question: And the Bone destruction ([1]; G8: Py 1 mg/kg/day BID PO)?
Answer: 2.8±0.4

Question: What about the Cartilage damage ([1]; G8: Py 1 mg/kg/day BID PO) of the same compound?
Answer: 2.3±1.2

Question: And the “Histopathological examination, total” value ([1]; G8: Py 1 mg/kg/day BID PO)?
Answer: 7.8±2.4

Question: What about the Synovium proliferation ([1]; G8: Py 1 mg/kg/day BID PO) of the same compound?
Answer: 2.7±0.8

Question: What about the Bone destruction ([1]; G9: Py 1 mg/kg/day QD PO) of the same compound?
Answer: 2.5±0.8

Question: And the Cartilage damage ([1]; G9: Py 1 mg/kg/day QD PO)?
Answer: 2.3±0.8

Question: What about the “Histopathological examination, total” value ([1]; G9: Py 1 mg/kg/day QD PO) of the same compound?
Answer: 7.8±1.6

Question: What about the Synovium proliferation ([1]; G9: Py 1 mg/kg/day QD PO) of the same compound?
Answer: 3.0±0.0

Question: What about the Bone destruction ([1]; G10: Py 3 mg/kg/day BID PO) of the same compound?
Answer: 2.8±0.4

Question: What about the Cartilage damage ([1]; G10: Py 3 mg/kg/day BID PO) of the same compound?
Answer: 2.0±0.6

Question: And the “Histopathological examination, total” value ([1]; G10: Py 3 mg/kg/day BID PO)?
Answer: 7.8±0.8

Question: What about the Synovium proliferation ([1]; G10: Py 3 mg/kg/day BID PO) of the same compound?
Answer: 3.0±0.0

Question: What about the Bone destruction ([1]; G11: Py 5 mg/kg QD PO) of the same compound?
Answer: 2.0±0.9

Question: What about the Cartilage damage ([1]; G11: Py 5 mg/kg QD PO) of the same compound?
Answer: 1.7±0.8

Question: And the “Histopathological examination, total” value ([1]; G11: Py 5 mg/kg QD PO)?
Answer: 6.7±1.5

Question: And the Synovium proliferation ([1]; G11: Py 5 mg/kg QD PO)?
Answer: 3.0±0.0

Question: What about the Bone destruction ([1]; G12: Py 15 mg/kg/day QD PO) of the same compound?
Answer: 2.2±0.4

Question: What about the Cartilage damage ([1]; G12: Py 15 mg/kg/day QD PO) of the same compound?
Answer: 1.5±0.5

Question: What about the “Histopathological examination, total” value ([1]; G12: Py 15 mg/kg/day QD PO) of the same compound?
Answer: 6.3±0.8

Question: And the Synovium proliferation ([1]; G12: Py 15 mg/kg/day QD PO)?
Answer: 2.7±0.5

Question: And the TNF-α expression (TNF-α; PY 0.2 uM, HCQ 0.61 uM, PG 5 uM, LPS 10 ng/mL, 24 h co-treatment)?
Answer: 667.9

Question: What about the TNF-α expression inhibition (TNF-α; drug treatment 2 h or 24 h, pyrimethamine 0.2 μM, proguanil 5 μM) of the same compound?
Answer: 히드록시클로로퀸과 비교하였을 때 피리메타민의 TNF-α 발현량 억제능이 월등함

Question: What about the Arthritis score ([2]; Day 0, G4: Py 10 mg/kg/day PO) of the same compound?
Answer: 2.3±1.6 Total score

Question: What about the Arthritis score ([2]; Day 0, G5: Py 30 mg/kg/day PO) of the same compound?
Answer: 2.3±1.4 Total score

Question: And the Arthritis score ([2]; Day 2, G4: Py 10 mg/kg/day PO)?
Answer: 4.0±1.6 Total score

Question: And the Arthritis score ([2]; Day 2, G5: Py 30 mg/kg/day PO)?
Answer: 2.7±1.8 Total score

Question: What about the Arthritis score ([2]; Day 4, G4: Py 10 mg/kg/day PO) of the same compound?
Answer: 4.6±1.8 Total score

Question: What about the Arthritis score ([2]; Day 4, G5: Py 30 mg/kg/day PO) of the same compound?
Answer: 4.0±2.7 Total score

Question: And the Arthritis score ([2]; Day 7, G4: Py 10 mg/kg/day PO)?
Answer: 5.4±2.4 Total score

Question: What about the Arthritis score ([2]; Day 7, G5: Py 30 mg/kg/day PO) of the same compound?
Answer: 4.0±2.7 Total score

Question: And the Arthritis score ([2]; Day 9, G4: Py 10 mg/kg/day PO)?
Answer: 6.1±2.5 Total score

Question: What about the Arthritis score ([2]; Day 9, G5: Py 30 mg/kg/day PO) of the same compound?
Answer: 5.3±1.6 Total score

Question: And the Arthritis score ([2]; Day 11, G4: Py 10 mg/kg/day PO)?
Answer: 6.7±2.1 Total score

Question: And the Arthritis score ([2]; Day 11, G5: Py 30 mg/kg/day PO)?
Answer: 5.4±1.5 Total score

Question: And the Arthritis score ([2]; Day 14, G4: Py 10 mg/kg/day PO)?
Answer: 7.3±2.1 Total score

Question: And the Arthritis score ([2]; Day 14, G5: Py 30 mg/kg/day PO)?
Answer: 5.6±1.4 Total score

Question: And the “Arthritis score (in words)” value ([2]; pyrimethamine groups, 10 and 30 mg/kg/day PO)?
Answer: 관절염 지수가 현저하게 감소

Question: What about the “Arthritis score compared with methotrexate (in words)” value ([2]; pyrimethamine high dose (30 mg/kg/day) PO) of the same compound?
Answer: 메토트렉세이트 투여군에 비해 관절염 지수가 현저하게 낮은

Question: And the Arthritis score ([3]; Day 0, G7: Py 1 mg/kg/day QD IP)?
Answer: 2.5±1.0 total score

Question: What about the Arthritis score ([3]; Day 0, G8: Py 1 mg/kg/day BID PO) of the same compound?
Answer: 2.5±1.0 total score

Question: And the Arthritis score ([3]; Day 0, G9: Py 1 mg/kg/day QD PO)?
Answer: 2.5±1.0 total score

Question: And the Arthritis score ([3]; Day 0, G10: Py 3 mg/kg/day BID PO)?
Answer: 2.5±1.0 total score

Question: What about the Arthritis score ([3]; Day 0, G11: Py 5 mg/kg QD PO) of the same compound?
Answer: 2.5±1.2 total score

Question: What about the Arthritis score ([3]; Day 0, G12: Py 15 mg/kg/day QD PO) of the same compound?
Answer: 2.5±1.0 total score

Question: What about the Arthritis score ([3]; Day 2, G7: Py 1 mg/kg/day QD IP) of the same compound?
Answer: 4.7±1.6 total score

Question: And the Arthritis score ([3]; Day 2, G8: Py 1 mg/kg/day BID PO)?
Answer: 4.8±0.8 total score

Question: What about the Arthritis score ([3]; Day 2, G9: Py 1 mg/kg/day QD PO) of the same compound?
Answer: 4.7±1.4 total score

Question: And the Arthritis score ([3]; Day 2, G10: Py 3 mg/kg/day BID PO)?
Answer: 4.5±1.0 total score

Question: And the Arthritis score ([3]; Day 2, G11: Py 5 mg/kg QD PO)?
Answer: 4.3±2.0 total score

Question: And the Arthritis score ([3]; Day 2, G12: Py 15 mg/kg/day QD PO)?
Answer: 4.2±1.2 total score

Question: And the Arthritis score ([3]; Day 5, G7: Py 1 mg/kg/day QD IP)?
Answer: 7.2±1.9 total score

Question: And the Arthritis score ([3]; Day 5, G8: Py 1 mg/kg/day BID PO)?
Answer: 7.0±1.3 total score

Question: What about the Arthritis score ([3]; Day 5, G9: Py 1 mg/kg/day QD PO) of the same compound?
Answer: 6.8±1.7 total score

Question: And the Arthritis score ([3]; Day 5, G10: Py 3 mg/kg/day BID PO)?
Answer: 6.2±2.4 total score

Question: What about the Arthritis score ([3]; Day 5, G11: Py 5 mg/kg QD PO) of the same compound?
Answer: 5.8±2.5 total score

Question: And the Arthritis score ([3]; Day 5, G12: Py 15 mg/kg/day QD PO)?
Answer: 5.5±1.5 total score

Question: And the Arthritis score ([3]; Day 7, G7: Py 1 mg/kg/day QD IP)?
Answer: 9.2±1.5 total score

Question: What about the Arthritis score ([3]; Day 7, G8: Py 1 mg/kg/day BID PO) of the same compound?
Answer: 9.5±1.5 total score

Question: What about the Arthritis score ([3]; Day 7, G9: Py 1 mg/kg/day QD PO) of the same compound?
Answer: 9.3±2.0 total score

Question: And the Arthritis score ([3]; Day 7, G10: Py 3 mg/kg/day BID PO)?
Answer: 7.8±2.9 total score

Question: And the Arthritis score ([3]; Day 7, G11: Py 5 mg/kg QD PO)?
Answer: 6.7±2.2 total score

Question: What about the Arthritis score ([3]; Day 7, G12: Py 15 mg/kg/day QD PO) of the same compound?
Answer: 6.3±2.0 total score

Question: What about the Arthritis score ([3]; Day 9, G7: Py 1 mg/kg/day QD IP) of the same compound?
Answer: 9.8±1.9 total score

Question: What about the Arthritis score ([3]; Day 9, G8: Py 1 mg/kg/day BID PO) of the same compound?
Answer: 10.3±2.2 total score

Question: And the Arthritis score ([3]; Day 9, G9: Py 1 mg/kg/day QD PO)?
Answer: 10.5±2.7 total score

Question: What about the Arthritis score ([3]; Day 9, G10: Py 3 mg/kg/day BID PO) of the same compound?
Answer: 8.2±2.9 total score

Question: What about the Arthritis score ([3]; Day 9, G11: Py 5 mg/kg QD PO) of the same compound?
Answer: 7.5±3.0 total score

Question: And the Arthritis score ([3]; Day 9, G12: Py 15 mg/kg/day QD PO)?
Answer: 7.5±2.1 total score

Question: And the Arthritis score ([3]; Day 12, G7: Py 1 mg/kg/day QD IP)?
Answer: 11.2±2.5 total score

Question: And the Arthritis score ([3]; Day 12, G8: Py 1 mg/kg/day BID PO)?
Answer: 11.7±2.7 total score

Question: What about the Arthritis score ([3]; Day 12, G9: Py 1 mg/kg/day QD PO) of the same compound?
Answer: 12.0±2.6 total score

Question: What about the Arthritis score ([3]; Day 12, G10: Py 3 mg/kg/day BID PO) of the same compound?
Answer: 9.8±2.9 total score

Question: What about the Arthritis score ([3]; Day 12, G11: Py 5 mg/kg QD PO) of the same compound?
Answer: 8.8±2.5 total score

Question: And the Arthritis score ([3]; Day 12, G12: Py 15 mg/kg/day QD PO)?
Answer: 7.7±2.1 total score

Question: And the Arthritis score ([3]; Day 14, G7: Py 1 mg/kg/day QD IP)?
Answer: 11.7±2.7 total score

Question: What about the Arthritis score ([3]; Day 14, G8: Py 1 mg/kg/day BID PO) of the same compound?
Answer: 12.3±2.9 total score

Question: What about the Arthritis score ([3]; Day 14, G9: Py 1 mg/kg/day QD PO) of the same compound?
Answer: 12.7±2.9 total score

Question: What about the Arthritis score ([3]; Day 14, G10: Py 3 mg/kg/day BID PO) of the same compound?
Answer: 10.5±3.0 total score

Question: And the Arthritis score ([3]; Day 14, G11: Py 5 mg/kg QD PO)?
Answer: 9.5±2.6 total score

Question: What about the Arthritis score ([3]; Day 14, G12: Py 15 mg/kg/day QD PO) of the same compound?
Answer: 8.2±2.0 total score

Question: And the “Arthritis score (in words)” value ([3]; Py 1 mg/kg/day QD PO and IP, 1 and 3 mg/kg/day BID PO, 5 mg/kg/day QD PO)?
Answer: 관절염 지수가 개선되지 않은

Question: What about the “Arthritis score (in words)” value ([3]; Py 15 mg/kg/day QD PO) of the same compound?
Answer: 관절염 지수가 현저하게 감소

Reference: patent KR20210056931A, “피리메타민을 유효성분으로 포함하는 면역 관련 질환의 치료 또는 예방용 약학 조성물” (priority 2019, dated 2021)
